In US5936082A, “Metallocorrinoids as biologically compatible carriers of pharmacological agents” (The University of Akron, priority 1997, dated 1999):

Assay: In vitro nitric oxide release and content by nitrogen oxides analyzer (Monitor Labs Model 8440)
Format: physicochemical
Method: The nitric oxide content and kinetic release profile, shown in FIG. 2, of nitrosylcobalamin was determined in vitro using a nitrogen oxides analyzer (Monitor Labs Model 8440). The amount of NO-"loading" was determined by examining the cumulative NO release, characterized at pH 4.9, 32° C., during a time span of 675.5 hours. The total NO released was 4,610 nmol NO, 38% loading based on the theoretical maximum of 11,890 nmol. The first twenty hours of NO release was characterized in great detail, with data readings taken every 15 minutes for the first eight hours and every half hour thereafter, resulting in the production of 260 nmol NO. […] At pH 10.0, NO release was undetected even though the sample size was increased to 20.6 mg.

- NO produced at pH 5.0 (5 mg sample, pH 5.0, 37° C., 86 hour time span): 95.0 nmol
- NO produced at pH 6.0 (5 mg sample, pH 6.0, 37° C., 86 hour time span): 2.4 nmol
- NO produced at pH 7.4 (5 mg sample, pH 7.4, 37° C., 86 hour time span): 1.05 nmol
- kinetic order of the cumulative NO release profile (cumulative NO release, pH 4.9, 32° C., R^2 =0.9984): first order kinetics
- calculated half life of NO release (first order fit of cumulative NO release, pH 4.9, 32° C.): 210 h
- NO release in the first twenty hours (first twenty hours, pH 4.9, 32° C.): 260 nmol
- NO loading, based on the theoretical maximum of 11,890 nmol (from cumulative NO release at pH 4.9, 32° C., 675.5 hours): 38%
- total NO released (cumulative NO release) (pH 4.9, 32° C., time span of 675.5 hours): 4,610 nmol
- NO release at pH 10.0 (pH 10.0, sample size 20.6 mg): undetected
Substance: nitrosylcobalamin
